Source: patent US9051351B2, “Hepatocyte growth factor mimics as therapeutic agents” (Washington State University, priority 2011, dated 2015)
Entries after “also recorded” stand apart in the source; their conditions may differ. Where a SMILES comes first, the peptide text is derived from it. [ ]: non-standard residue; d: D form. The star is where a group is joined. Hexanoyl = CCCCCC(=O)*; Ahx = NCCCCCC(=O)O

Tests used:
[1] = tested on: c-Met; assay: Augmentation of HGF-dependent c-Met phosphorylation in HEK293 cells; assay type: cell-based, human; conditions: HEK 293 cells, HGF+/−Dihexa, 30 minutes
Protocol: HGF mimetic activity was typically assessed by one or both of two methods: augmentation of HGF-dependent c-Met phosphorylation in HEK293 cells, or 2) augmentation of HGF-dependent cell scattering in MDCK cells. All the compounds in Family one were tested using the c-Met phosphorylation assay. […]
Human embryonic kidney cells 293 (HEK293), Madin Darby canine kidney cells (MDCK), and B16F10 murine melanoma cells were grown in DMEM, 10% fetal bovine serum (FBS). Cells were grown to 90-100% confluency before use. For most but not all studies HEK and MDCK cells were serum starved for 24 hours prior to the initiation of drug treatment.
HEK293 cells were seeded in 6 well tissue culture plates and grown to 95% confluency in DMEM containing 10% FBS. […] The lysate was clarified by centrifugation at 15,000 g for 15 minutes, protein concentrations were determined using the BCA total protein assay, and then appropriate volumes of the lysates were diluted with 2× reducing Laemmli buffer and heated for ten minutes at 95° C. […] Proteins were visualized using the Supersignal West Pico Chemiluminescent Substrate system (Pierce, Fenton, Mo.) and molecular weights determined by comparison to protein ladders (BenchMark, Invitrogen; and Kaleidoscope, BioRad). Images were digitized and analyzed using a UVP phosphoimager.

[2] = tested on: CA1 hippocampal neurons; assay: Spinogenesis in organotypic hippocampal slice cultures; assay type: cell-based, rat; conditions: 10^−12 M Nle1-AngIV or Dihexa, 10 ng/ml HGF; 2 days
Protocol: (§1) Hippocampi from P4 Sprague Dawley rats were cultured as previously described (Wayman, hnpey et al. 2006). Briefly, 400 μm slices were cultured on (Milipore, Billerica, Mass.) for 3 days after which they were biolistically transfected with tomato fluorescent protein (TFP) using a Helios Gen Gun (BioRad, Hercules, Calif.), according to the manufacturer's protocol, to visualize dendritic arbors. Following a 24 hour recovery period slices were stimulated with vehicle (H2O), 1 pM Nle1-AngIV or Dihexa for 2 days. Slices were fixed and mounted. Hippocampal CA1 neuronal processes were imaged and measured as described above.
as §1, with “Impey” for “hnpey”, “Gene” for “Gen”, “with” for “with vehicle (H2O),”, “Slices were fixed and mounted.” left out
Hippocampi from P4 Sprague Dawley rats were cultured as previously described (Wayman, Impey et al. 2006). […] Hippocampal CA1 neuronal processes were imaged and measured as described above.

[3] = tested on: c-Met receptor; assay: c-Met phosphorylation in acute adult hippocampal slices; assay type: cell-based, rat; conditions: 30 minutes
Excerpt: Adult Sprague-Dawley rats (250 g+) obtained from Harlan Laboratories (Ca, USA) were anesthetized with isofluorane (Vet One™, MWI, Meridian, Id., USA) and decapitated. The brain was rapidly removed and placed into ice-chilled artificial cerebrospinal fluid (aCSF) for approximately 30 s. Both hemispheres were separated by a mid-saggital cut and both hippocampi removed. Slices were sectioned cross- and length-wise (400 μm) to ensure penetrability of the drug, using a Mcllwain tissue chopper (Brinkmann, Gomshall, UK) and transferred to a gassed (95% O2/5% CO2) incubation chamber containing aCSF for 90 minutes at room temperature. Slices were transferred to fresh tubes, aCSF was removed by careful suctioning and replaced with aCSF containing vehicle (aCSF+aCSF), 100 ng/ml with carrier free adult recombinant Hepatocyte Growth Factor (HGF) (R and D Systems, MN, USA) in aCSF, 10^−10 M Hinge (Harding lab), […], 10^−10 M Dihexa (Harding lab) in aCSF, 10^−12 M Dihexa in aCSF or 50 ng/ml HGF+10^−12 M Dihexa in aCSF for 30 minutes at 37° C. with gentle rocking. aCSF was removed and the slices were lysed using RIPA buffer (Upstate/Milipore, Billerica, Mass.) and inhibitor Cocktails I and II (Sigma, St. Louis, Mo.), sonicated on ice and clarified by centrifugation for 30 minutes, 13,000 rpm at 4° C. The supernatant was removed from the pellet and stored at −80° C. or processed immediately for gel electrophoresis.
Protein concentration of the samples was quantified using the BCA method (Pierce, Rockford, Ill.) following the manufacturers protocol. Samples were added to SDS-PAGE buffer and boiled for 10 min. before loading onto a 4-12% Bis-Tris pre-cast gel (Invitrogen, Carlsbad, Calif.) for electrophoresis. Proteins were transferred onto PVDF membranes (Bio Rad, Hercules, Calif.) and blocked with AquaBlock™ (New England Biolabs, Ipswich, Mass.) for 1 hour at room temperature (RT). Primary antibody incubation was done in AquaBlock™ with rabbit anti-Met and […] phospho-Met (Tyr1234/1235) (1:1000, Cell Signaling Technology, Danvers, Mass.) overnight at 4° C. Alternating washes were done with PBS and PBST. Secondary antibody (IRDye) (Rockland, Gilbertsville, Pa.) incubations were done in AquaBlock™ for one hour at RT. Blots were imaged using LI-COR Odyssey Infrared Imaging System (LI-COR Biosciences, Lincoln, Nebr.).

[4] = in vitro; conditions: male, rat, microsomes, pH 7.38

CCCCCC(=O)N[C@@H](Cc1ccc(O)cc1)C(=O)N[C@H](C(=O)NCCCCCC(N)=O)[C@@H](C)CC [Dihexa, N-hexanoic-Tyr-Ile-(6)-aminohexanoic amide] (Hexanoyl-Tyr-Ile-[Ahx]-NH2)
augmentation of HGF activation (phosphorylation) of c-Met [1]: dramatically augment the ability of HGF to activate c-Met; also recorded: markedly augments the ability of HGF to signal to c-Met; also recorded: work synergistically to activate c-Met
spines per 50 μm dendrite length in CA1 hippocampal neurons [2]: 11 spines per 50 μm dendrite length
c-Met phosphorylation vs vehicle (aCSF) ([3]; saturating doses: HGF 100 ng/ml, Dihexa 10^−10 M): increased c-Met phosphorylation; also recorded: effectively augment c-Met phosphorylation
c-Met phosphorylation vs vehicle (aCSF) ([3]; sub-threshold doses: HGF 50 ng/ml, Dihexa 10^−12 M): not statistically different from control treated slices; also recorded: did not significantly increase c-Met receptor phosphorylation
half-life at 5 µM [4]: 8.49 h
microsomal CLint at 5 µM [4]: 2.72 µL/min/mg
